Source: patent publication EP2216022A1, “USE OF C[…] THE TREATMENT OF BASAL CELL CARCINOMA AND OTHER TUMORS” (Tas, Sinan, priority 2001, dated 2002)

What was measured:
Format in all cases: in vivo, patient
BCC cells [1] = assay: Ulex Europaeus lectin type 1 labelling (differentiation marker) of treated BCC's; settings: Residual cells of cyclopamine-treated BCC's; lectin normally does not label BCC's; topical cream 18 mM cyclopamine
Description: (§1) These regions are seen to contain residual BCC`s displaying large cysts in the tumor center and smaller cystic structures of various sizes located among the residual BCC cells towards the periphery. • Fig 2D and Fig 2E show 1000X magnified appearances from the interior and palisading peripheral regions of these residual BCC's and show the presence of massive apoptotic activity among the residual BCC cells regardless of the tumor region.
Ber-Ep4 is a known differentiation marker that stains the BCC cells as well as the undifferentiated cells of the normal epidermis basal layer and of hair follicles but not the differentiated upper layer cells of normal epidermis. […] 3D and 3E : Decreased expression of p53 as detected by the monoclonal antibody DO-7 in cyclopamine-treated BCC's (3D) in comparison to the placebo-treated BCC's (3E). Expression of p53 is known to decrease upon differentiation of the epidermal basal cells and upon differentiation of cultured keratinocytes. It is also well known that the amount of p53, detectable by DO-7, increases in cells when they are exposed to DNA-damaging agents. […] Original magnifications are 400X for 3A, 3B, 3D, 3E, 1000X for 3C and 100X for 3F, 3G. All immunohistochemical labellings are with peroxidase-conjugated streptavidin binding to biotinylated secondary antibody; labelling is Indicated by the brown-colored staging. […]

p53 = assay: Immunohistochemical DO-7 labelling (p53 expression) of treated BCC's; settings: topical cream 18 mM cyclopamine; for % Of Cells Labelled With DO-7: four times per day, excised on fifth and sixth days, means ± standard deviations, p < 0.001 vs placebo
Description: as §1
The p53 is a master regulator of the cellular response to DNA-damage. Amount of this protein is known to increase in the cell nucleus following exposure of cells to genotoxic agents. When the DNA-damage is increased beyond a threshold, p53 serves for the apoptotic death of cells. Radiation therapy of cancer and the genotoxic cancer chemotherapeutics that are currently common, act largely by this mechanism, i.e. by causation of apoptosis secondary to the damaging of DNA. The monoclonal antibody DO-7 can bind both normal and missense mutant (i.e., nonfunctional) forms of p53 and is known to be capable of detecting the increase of p53 in the cells following exposure to DNA-damaging agents.
Since expression of p53 is known to decrease in epidermal cells upon differentiation, the decreased DO-7 labelling of the cyclopamine-treated BCC's is likely to be secondary to the cyclopamine-induced differentiation of the BCC cells.
(§2) Ber-Ep4 is a known differentiation marker that stains the BCC cells as well as the undifferentiated cells of the normal epidermis basal layer and of hair follicles but not the differentiated upper layer cells of normal epidermis. […] 3D and 3E : Decreased expression of p53 as detected by the monoclonal antibody DO-7 in cyclopamine-treated BCC's (3D) in comparison to the placebo-treated BCC's (3E). Expression of p53 is known to decrease upon differentiation of the epidermal basal cells and upon differentiation of cultured keratinocytes. It is also well known that the amount of p53, detectable by DO-7, increases in cells when they are exposed to DNA-damaging agents. […]

[2] = system: basal cell carcinomas (BCC's); assay: Topical cyclopamine cream on basal cell carcinomas: clinical regression; settings: Two BCC's (nasolabial fold, forehead); topical cream 18 mM cyclopamine, 10 ± 2 µl four times per day; visual disappearance of several tumor areas within less than a week, loss of translucency
Description: as §1
1C : BCC, located on forehead, prior to tretment.

BCC cells [3] = assay: Immunohistochemical Ber-Ep4 labelling (differentiation marker) of treated BCC's; settings: topical cream 18 mM cyclopamine, four times per day, excised on fifth and sixth days, means ± standard deviations, p < 0.001 vs placebo
Description: as §1
The loss of translucency in the cyclopamine-treated BCC's raises the intriguing possibility of differentiation of BCC's under the influence of cyclopamine. This possibility, which can be tested by immunohistochemical analyses of the BCC's, is found to be the case in this invention. In normal epidermis, differentiation of basal tayer cells to the upper layer cells is accompanied by a loss of labelling with the monoclonal antibody Ber-Ep4. Ber-Ep4 labels also the BCC cells and is a known marker for these neoplasms.
Ber-Ep4 is a known differentiation marker that stains the BCC cells as well as the undifferentiated cells of the normal epidermis basal layer and of hair follicles but not the differentiated upper layer cells of normal epidermis. […] 3D and 3E : Decreased expression of p53 as detected by the monoclonal antibody DO-7 in cyclopamine-treated BCC's (3D) in comparison to the placebo-treated BCC's (3E). Expression of p53 is known to decrease upon differentiation of the epidermal basal cells and upon differentiation of cultured keratinocytes. It is also well known that the amount of p53, detectable by DO-7, increases in cells when they are exposed to DNA-damaging agents. […] Original magnifications are 400X for 3A, 3B, 3D, 3E, 1000X for 3C and 100X for 3F, 3G. All immunohistochemical labellings are with peroxidase-conjugated streptavidin binding to biotinylated secondary antibody; labelling is Indicated by the brown-colored staging. Sections shown in 3F and 3G are stained with Periodic Acid-Schiff and Alcian blue.

[4] = system: normal epidermis and hair follicles; settings: Normal skin exposed to the same schedule and doses of cyclopamine as the BCC's; undifferentiated basal layer cells preserved
Description: as §1
4B and 4C Higher power views from different areas of cyclopamine-treated epidermis showing Ber-Ep4 labelling of the basal cells. […] Original magnification is 400X for 4A and 1000X for 4B, 4C, 4D, immunohistochemical detection procedure is the same as in Fig 3A, 3B; labelling is indicated by brown coloring.

BCC's = assay: Retraction of treated BCC's from stroma (arrest of proliferation), Periodic Acid-Schiff and Alcian blue sections; settings: Cyclopamine-treated but not placebo-treated BCC's; associated with arrest of proliferation; topical cream 18 mM cyclopamine
Description: as §1
Arrest of the proliferation of BCC's is known to be associated with their retraction from stroma. Although retraction from stroma can also be caused artefactually by improper fixation and processing of the tissues, adherence to published technical details ensures avoidance of such artefacts.
as §2

BCC cells [5] = assay: Apoptosis by morphological criteria on hematoxylene-eosine stained sections of excised treated BCC's; settings: topical cream 18 mM cyclopamine, 10 ± 2 µl four times per day, excised on fifth and sixth days, means ± standard deviations, at least 16 high-power (1000 X) fields, p < 0.001 vs placebo
Description: as §1
Cells undergoing apoptosis are known to be removed by macrophages and by nearby cells in normal tissues and the quantitation of apoptotic activity by morphological criteria on hematoxylene-eosine stained sections is known to provide an underestimate.
Fig 2A, 2B, 2C, 2D, 2E, 2F : Microscopic appearences of the cyclopamine- and placebo-treated BCC's, showing the cyclopamine-induced massive apoptotic death and removal of the tumor cells and the disappearence of tumor nodules to leave behind cystic spaces with no tumor cells. Skin areas corresponding to the pre-treatment positions of the BCC's were excised surgically on the fifth and sixth days of cyclopamine exposure with a margin of normal tissue and subjected to conventional fixation, sectioning and hematoxylene-eosine staining for microscopic analyses. 2A : Large cyst in the dermis corresponding to the position of a disappeared tumor nodule showing no residual tumor cells. […]

[6] = Non-palisading (interior) cells of the BCC's
[7] = Peripheral palisading cells of the BCC's

## CC1=C2C[C@H]3[C@@H](CC=C4C[C@@H](O)CC[C@@]43C)[C@@H]2CC[C@]12O[C@@H]1C[C@H](C)CN[C@H]1[C@H]2C [Cyclopamine]
BCC cells [1]
  labelling of the residual cells with Ulex Europaeus lectin type 1: heterogenous labelling
p53; Cyclopamine-treated BCC's in comparison to placebo-treated BCC's
  DO-7 labelling intensity and the frequency of labelled cells: markedly decreased
p53; [6]
  % Of Cells Labelled With DO-7: 5 ± 3%
p53; [7]
  % Of Cells Labelled With DO-7: 16 ± 11%
[2]
  clinical regressions of the BCC's: rapid clinical regressions
BCC cells [3]; [6]
  % Of Cells Labelled With Ber-Ep4: 0 ± 0%
BCC cells [3]; Non-palisading (interior) cells of the BCC's, listed as cyclopamine
  % Of Cells Labelled With Ber-Ep4: none
BCC cells [3]; [7]
  % Of Cells Labelled With Ber-Ep4: 0 ± 0%
BCC cells [3]; Peripheral palisading cells of the BCC's, listed as cyclopamine
  % Of Cells Labelled With Ber-Ep4: none
[4]
  pattern of labelling with Ber-Ep4 of cyclopamine-treated normal epidermis and hair follicle: normal pattern of labelling
BCC's
  retraction of BCC's from stroma: consistently retracted from stroma
BCC cells [5]; [6]
  % Of Cells Showing ≥ 2 Morphological Signs Of Apoptosis On H&E Stained Tissue Sections: 18 ± 11%
BCC cells [5]; [7]
  % Of Cells Showing ≥ 2 Morphological Signs Of Apoptosis On H&E Stained Tissue Sections: 20 ± 8%
